Experimental data taken from patent US7595176B2, “Methods and reagents for quantitative analysis of Dehalococcoides species” (Georgia Tech Research Corporation, priority 2003, dated 2009).

How the values were obtained:
[1] = tested on: VC-dechlorinating Dehalococcoides population in the Bachman culture; test: Reductive dechlorination kinetics of chloroethenes in the VC-dechlorinating Bachman enrichment culture; type: cell-based, Dehalococcoides sp.; details: for Ks (half-velocity coefficient) / kX (maximum aqueous dechlorination rate): pyruvate-fed cultures, Monod equation, nonlinear regression; for Dechlorination by the culture after prolonged enrichment with VC: chloroethene added alone, without DCEs or VC
Description: All experiments were carried out in serum bottles (160 ml nominal volume) containing 100 ml (final volume) of growth medium, which were sealed with black butyl rubber septa (Wheaton, Ochelata, Okla.). Anoxic, bicarbonate-buffered mineral salts medium was prepared, and was amended with pyruvate (10 mM), lactate (5 mM or 10 mM), acetate plus formate (5 mM each), or acetate (5 mM) as substrates. Löffler et al., Appl. Environ. Microbiol., 1997, 63:4982-4985. Unless indicated otherwise, H2 was only added to acetate-fed cultures at a partial pressure of 9 kPa. Routinely, L-cysteine and Na2S×9 H2O (0.2 mM each) were used to chemically reduce the medium. DL-dithiothreitol (DTT) was tested at 0.5 mM concentration. Titanium(III) (0.5 mM) was added from a filter-sterilized citrate solution after the medium had been autoclaved. Löffler et al., Appl. Environ. Microbial., 1996, 62:3809-3813; Zehnder et al., Science, 1976, 194:1165-1166. Gaseous VC was added as a single dose of 1 to 6 ml per serum bottle resulting in initial aqueous concentrations ranging from 0.27 to 1.6 mM. Other chloroethenes were added using Hamilton glass syringes (Hamilton, Reno, Nev.) to initial aqueous concentrations ranging from 0.2 to 0.5 mM. Biogenic cis-DCE was produced from PCE (0.5 mM) using a culture of ‘Desulfuromonas michiganensis’.
After complete dechlorination to cis-DCE (0.5 mM), the cultures were amended with pyruvate and inoculated with the VC-dechlorinating culture. New cultures were routinely seeded with a 2% (vol/vol) inoculum using plastic syringes. To minimize the contact of the inoculum with air present in the plastic of the syringes during transfers, the syringes were reduced with a sterile 0.5 mM aqueous sulfide solution for 5-10 min prior to transfers. Gaseous substrates were added with plastic syringes that had been previously flushed with H2- and O2-free N2.
All experiments were set up in triplicates, and all results were verified by at least one additional independent experiment. Culture bottles were incubated upside down at room temperature (22-25° C.) without agitation in the dark, unless indicated otherwise. Duplicate controls (no inoculum or autoclaved inoculum) accompanied each experiment. Ethene formation strictly depended on a viable inoculum, and loss of VC through the septum was negligible.
Chloroethenes were measured with a Hewlett Packard model 6890 gas chromatograph equipped with a HP-624 column (60 m length, 0.32 mm diameter, 1.8 μm film thickness) and a flame ionization detector (FID). Headspace samples of 100 μl were withdrawn with gas-tight 250 μl Hamilton glass syringes with Teflon-lined valves (model # 1725), and manually injected into a split injector operated at a split ratio of 2:1. All syringes were flushed with H2- and O2-free N2 gas to prevent contamination of the cultures with these gases. A temperature program that allowed the simultaneous analysis of all chloroethenes and ethene was described previously. He et al., Environ. Sci. Technol., 2002, 36: 3945-3952. Standards were prepared as described and 7-point calibration curves were established for all chloroethenes and ethene at room temperature. Gossett, Environ. Sci. Technol., 1987, 21: 202-208. The instrument detection limits for VC and ethene were 7.3 and 8.6 μM, respectively. For quantification of VC and ethene at different temperatures, concentrations of each compound were determined from 3-point calibration curves.
[formula] was used to describe the substrate reaction kinetics, where S is the chloroethene concentration, KS is the half-saturation coefficient, k is the maximum chloroethene dechlorination rate per unit of biomass, and X is the dechlorinating biomass concentration. It was assumed that Xlag was zero during the lag period due to the small inoculum transferred, and X remained constant during the phase of active dechlorination due to slow growth of the dechlorinating population(s). […]

[2] = 25° C.; Gossett 1987; cited from earlier work

Row | Compound | Ks (half-velocity coefficient) [1] | kX (maximum aqueous dechlorination rate) [1] | Dimensionless Henry coefficient [2] | further results
1 | C=CCl [VC, vinyl chloride] | 5.8 ± 0.4 µM | 54.4 ± 3.5 μMday^−1 | 1.137 | VC dechlorination rate ([1]; acetate-enriched cultures): 2.4 ± 0.5 µmol/L/day
2 | C=C(Cl)Cl [1,1-DCE] | – | – | 1.069 | –
3 | ClC=C(Cl)Cl [TCE, trichloroethene] | – | – | – | Dechlorination by the culture after prolonged enrichment with VC [1]: failed to dechlorinate
4 | ClC(Cl)=C(Cl)Cl [PCE, Perchloroethene] | – | – | – | Dechlorination by the culture after prolonged enrichment with VC [1]: failed to dechlorinate
5 | CC1(C)S[C@@H]2[C@H](NC(=O)[C@H](N)c3ccccc3)C(=O)N2[C@H]1C(=O)O [ampicillin, reference compound] | – | – | – | Effect on dechlorination rates of DCEs and VC to ethene ([1]; compared with cultures without the antibiotic): about one third less
6 | Cl/C=C\Cl [cis-DCE] | 8.9 ± 0.4 µM | 23.1 ± 0.8 μMday^−1 | 0.167 | –
7 | Cl/C=C/Cl [trans-DCE] | 8.5 ± 0.3 µM | 26.2 ± 0.7 μMday^−1 | 0.384 | –
